Source: PMC9409992, “Immunosuppressive Cytochalasins from the Mangrove Endophytic Fungus Phomopsis asparagi DHS-48” (Marine Drugs, 2022)
Like-named read-outs stand apart in the source and are kept apart here.

Key:
[1] = tested on: ConA-induced T murine splenic lymphocytes; assay: ConA-induced T-cell (splenic lymphocyte) proliferation, CCK-8; assay type: cell-based, BALB/c mice; details: Mus musculus, 48 h, read-out: IC50 ConA-Induced T-Cell Proliferation
Method: (§1) The isolated compounds (1–8) were evaluated for their immunosuppressive activities against the proliferation of ConA-induced T and LPS-induced B murine splenic lymphocytes, according to previously described protocols. […] The cytotoxicity of immunosuppressive Compounds 2 and 4–6 was tested in murine splenocyte cultures for 72 h using the tetrazolium salt-based CCK-8 assay. […] Thus, we selected this particular cytochalasin for the mechanism of action studies.
(§2) Spleen cells were collected from BALB/c mice under aseptic conditions, plated in a 96-well plate at a density of 1.5 × 10^6 cells/well and activated by Con A (5 μg/mL) or LPS (10 μg/mL) in the presence of various concentrations of compounds or cyclosporine A (CsA) at 37 °C and 5% CO2 for 48 h. Then, 20 μL CCK-8 was added to each well, 4 h before the end of the incubation. Absorbance at OD450 was measured on an ELISA reader, and the IC50 value was calculated from the correlation curve between the compound concentration and the OD450.

[2] = tested on: LPS-induced B murine splenic lymphocytes; assay: LPS-induced B-cell (splenic lymphocyte) proliferation, CCK-8; assay type: cell-based, BALB/c mice; details: Mus musculus, 48 h, read-out: IC50 LPS-Induced B-Cell Proliferation
Method: as §1, §2

[3] = Cytotoxicity / cell viability in normal splenocytes, CCK-8, 72 h; assay type: cell-based, BALB/c mice; details: BALB/c, mouse, mean ± SD (n = 7), read-out: Cytotoxicity IC50, murine splenocytes
Method: as §1
(§3) Cell viability was evaluated using the CCK-8 method. Spleen cells were plated in a 96-well plate at a density of 1.5 × 10^6 cells/well. Then, the cells were incubated with various concentrations of compounds or 0.1% DMSO at 37 °C and 5% CO2 for 72 h. Proliferation was measured using the CCK-8 assay, as described above. Cyclosporin A (CsA) and cytochalasin D were used as positive controls.

[4] = target: calcineurin (CN) (Homo sapiens, UniProt P63098+Q08209); assay: CN phosphatase assay (p-NPP substrate, spectrophotometric); assay type: biochemical; details: 20 mM p-NPP substrate, pH 7.4; read-out: IC50 calcineurin (CN) inhibition
Method: A spectrophotometric assay was used to determine the activities of CN with 20 mM p-nitrophenyl phosphate (p-NPP) as the substrate in 1 mM CaCl2, 0.5 mM MnCl2, 2 mM CaM, 2 mM CNB, 1 mM DTT, 0.1 mg/mL bovine serum albumin (BSA), and 50 mM Tris-HCl (pH 7.4) at 4 °C. The reaction was initiated by the addition of CNA, various concentrations of compounds (6.25, 12.5, 25, 50 or 100 μM) were added, and the solution was preincubated for 10 min at 4 °C. The OD410 value was measured, and the inhibitory concentration (IC50) was calculated. DMSO (2%) was used as a vehicle control. CsA was used as a positive control.

[5] = tested on: NFAT1 dephosphorylation; assay: Western blot of ConA-stimulated NFAT1 / NFAT-P in splenocytes; assay type: cell-based, BALB/c mice; details: 50 μM
Method: (§4) The effect of 2 on ConA-stimulated NFAT1 and NFAT-P expression was determined by Western blotting. […] In contrast, in the ConA-stimulated cells in the absence of 2, the dephosphorylated form of NFAT1 was detected, as well as the phosphorylated form. […] After 48 h of stimulation with 5 μg/mL Con A, the fluorescent NFAT1 translocated to the nucleus. […] In addition, 2 formed hydrophobic interactions with residues ILE-436, ILE-474, ARG-477, VAL-490, and VAL-498 and intermolecular interactions with residues THR-126, GLN-127, ASP-313, and PRO-340. Therefore, the immunosuppressive activity of 2 is possibly, at least in part, mediated via CaN/NFAT signaling pathway-regulated Con A-stimulated activation of splenocytes (Figure 7), highlighting its potential for use as an effective noncytotoxic natural immunosuppressant.
Splenocytes were washed with PBS and lysed in PMSF lysate. After centrifugation at 12,000 rpm for 5 min, the protein concentration was determined using a BSA Protein Assay Kit. Protein lysates were separated using 10% sodium dodecyl sulfate–polyacrylamide gel electrophoresis (SDS–PAGE) and transferred to polyvinylidene difluoride (PVDF) membranes. After blocking, the membranes were incubated overnight with the respective primary antibodies against NFAT1, NFAT-P, and β-actin in 5% BSA, and the secondary antibody was horseradish peroxidase (HRP)-conjugated goat anti-rabbit IgG. […]

[6] = tested on: NFAT1 translocation; assay: Immunofluorescence of NFAT1 nuclear translocation in ConA-stimulated splenocytes; assay type: cell-based, BALB/c mice; details: Con A 5 μg/mL, 48 h
Method: as §4
Splenocytes were seeded in a 24-well plate at a density of 5 × 10^6 cells/well, incubated with various concentrations of Compound 2 or CsA, and then activated by culturing with Con A (5 μg/mL) for 48 h. After treatment, the cells were fixed with 4% paraformaldehyde for 30 min, permeabilized in 0.5% Triton X-100 for 15 min, blocked with 5% BSA for 1 h, and then incubated overnight in the respective primary antibody; NFAT1 (D43B1) XP® Rabbit antibody was used at a 1:100 dilution in PBS. The corresponding fluorescent anti-rabbit IgG (H+L) secondary antibody was added for 1 h. […]

[7] = tested on: IL-2 mRNA; assay: IL-2 mRNA expression by real-time quantitative PCR in ConA-stimulated splenocytes; assay type: cell-based, BALB/c mice; details: q-PCR, 48 h
Method: as §4
The obtained total RNA (2 µg) was used for cDNA synthesis with a Servicebio®RT First Strand cDNA Synthesis Kit with random primers, according to the manufacturer’s instructions. qPCR was performed ith SYBR Green qPCR Master Mix (High ROX) using ABI StepOne Plus Real-time Detection System and β-actin as internal control. […] The expression levels of genes were normalized to the expression of β-actin mRNA and analyzed using the delta-delta CT method (2^−ΔΔCT).

[8] = tested on: IL-2; assay: IL-2 ELISA of culture supernatants of ConA-stimulated splenocytes; assay type: cell-based, BALB/c mice
Method: as §4
Splenocytes were treated as described in the RT–qPCR section, and then the IL-2 levels in the obtained culture supernatants were measured using an enzyme-linked immunosorbent assay (ELISA) kit, according to the manufacturer’s instructions. Cytokine standard curves were used to calculate the amount of IL-2, and the absorbance of each well was read at OD450 using an ELISA reader.

[9] = tested on: murine splenocytes; assay: Cytotoxicity / cell viability in normal splenocytes, CCK-8, 72 h; assay type: cell-based, BALB/c mice; details: mean ± SD (n = 7)
Method: as §1, §3

calcineurin (CN), sequence (P63098 whole entry, other chains not shown): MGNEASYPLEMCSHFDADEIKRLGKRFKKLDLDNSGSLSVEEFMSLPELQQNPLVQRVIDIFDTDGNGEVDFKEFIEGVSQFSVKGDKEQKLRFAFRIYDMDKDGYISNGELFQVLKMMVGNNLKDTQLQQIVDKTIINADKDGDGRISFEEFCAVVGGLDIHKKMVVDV

Compound	IC50 [1]	IC50 [2]	IC50 at 72 h [3]	also measured
C=C1C(C)C2C(Cc3ccccc3)NC(=O)C23C(O)C2C=C(C)CC(C)CC4OC1C3C42 (stereo not drawn) [Compound 1, Phomoparagin A]	> 200 µM	> 200 µM		
C=C1C(C)C2C(Cc3ccccc3)NC(=O)C23C(OC(C)=O)C2C=C(C)CC(C)CC(O)C2C3C1O (stereo not drawn) [Compound 2, Phomoparagin B]	21.6 ± 1.7 µM	78.5 ± 1.3 µM	111.7 ± 1.1 µM	IC50 [4]: 17.9 ± 0.4 µM; Effect on ConA-stimulated dephosphorylation of NFAT [5]: strongly inhibited the dephosphorylation of NFAT; Effect on Con A-stimulated translocation of NFAT1 from cytoplasm to nucleus [6]: blocked the Con A-stimulated translocation of NFAT1 from the cytoplasm to the nucleus in a dose-dependent manner; Transcription level of Con A-stimulated IL-2 mRNA [7]: decreased with increasing concentrations of 2; IL-2 protein level (secretion) [8]: confirmed the effects of 2 at the IL-2 protein level
C=C1C(C)C2C(Cc3ccccc3)NC(=O)C23C=C2C=C(C)CC(C)CC(O)C2C3C1O (stereo not drawn) [Compound 3, Phomoparagin C]	> 200 µM	> 200 µM		
C=C1C(C)C2C(Cc3ccccc3)NC(=O)C23C(O)C2C=C(C)CC(C)CC(O)C2C3C1O (stereo not drawn) [Compound 4, phomopchalasin A]	32.8 ± 2.4 µM	145 ± 2.2 µM	373.7 ± 3.3 µM	
C=C1C(C)C2C(Cc3ccccc3)NC(=O)C23C(O)C(O)C2C(C)=CC(C)CC4OC1C3C42 (stereo not drawn) [Compound 5, phomopchalasin B]	31.2 ± 2.5 µM	154.4 ± 0.4 µM	84.4 ± 0.3 µM	
C=C1C(C)C2C(Cc3ccccc3)NC(=O)C23C(OC(C)=O)C=CC(C)(O)CC(C)CC=CC3C1O (stereo not drawn) [Compound 6, cytochalasin H]	11.2 ± 0.3 µM	103 ± 1.1 µM	42.2 ± 1.7 µM	IC50 [9]: 42.2 ± 1.7 µM
C=C1C(C)C2C(Cc3ccccc3)NC(=O)C23C(O)C=CC(C)(O)CC(C)CC=CC3C1O (stereo not drawn) [Compound 7, cytochalasin J]				IC50 ([1]; Con A 5 μg/mL, CCK-8, mean ± SD, three experiments): > 200 µM; IC50 ([2]; LPS 10 μg/mL, CCK-8, mean ± SD, three experiments): > 200 µM
C=C1C(C)C2C(Cc3ccccc3)NC(=O)C23C(=O)C=CC(C)(O)CC(C)CC=CC3C1O (stereo not drawn) [Compound 8, fragiformin B]	> 200 µM	> 200 µM		
C=C1[C@@H](C)[C@H]2[C@H](Cc3ccccc3)NC(=O)[C@]23[C@H](OC(C)=O)/C=C/[C@@](C)(O)C(=O)[C@@H](C)C/C=C/[C@H]3[C@@H]1O [Cytochalasin D, cytochalasin D, reference compound]				IC50 [3]: 1 µM
